Laboratory results from publication PMC10531071, “Furmonertinib, a Third-Generation EGFR Tyrosine Kinase Inhibitor, Overcomes Multidrug Resistance through Inhibiting ABCB1 and ABCG2 in Cancer Cells” (International Journal of Molecular Sciences, 2023).

How the values were obtained:
ABCG2 (BCRP; MXR; ABCP) = molecular target: T1, ABCG2 (BCRP; MXR; ABCP) (Homo sapiens, UniProt Q9UNQ0); assay: vanadate-sensitive ATPase stimulation in High-Five insect cell membrane vesicles; also PhA efflux inhibition in R482-HEK293 cells (IC50 […]); type: biochemical
T1 sequence (Q9UNQ0 1-655): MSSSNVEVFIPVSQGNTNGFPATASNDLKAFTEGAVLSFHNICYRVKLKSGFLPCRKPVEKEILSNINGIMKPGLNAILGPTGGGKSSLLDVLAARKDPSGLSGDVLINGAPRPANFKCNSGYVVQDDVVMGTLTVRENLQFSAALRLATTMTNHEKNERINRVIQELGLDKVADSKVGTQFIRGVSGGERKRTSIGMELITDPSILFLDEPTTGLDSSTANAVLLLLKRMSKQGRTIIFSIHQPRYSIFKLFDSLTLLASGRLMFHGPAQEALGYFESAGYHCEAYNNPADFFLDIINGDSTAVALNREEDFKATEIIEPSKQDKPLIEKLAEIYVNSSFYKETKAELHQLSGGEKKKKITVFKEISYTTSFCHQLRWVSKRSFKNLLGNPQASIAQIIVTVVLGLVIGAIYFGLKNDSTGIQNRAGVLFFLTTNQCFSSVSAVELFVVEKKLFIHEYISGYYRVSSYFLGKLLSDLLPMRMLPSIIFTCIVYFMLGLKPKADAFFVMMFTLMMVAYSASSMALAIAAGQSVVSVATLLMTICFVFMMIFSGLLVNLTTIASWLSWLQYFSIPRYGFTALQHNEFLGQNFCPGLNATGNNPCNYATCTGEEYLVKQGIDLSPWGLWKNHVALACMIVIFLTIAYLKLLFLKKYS

[1] = molecular target: ABCB1 (P-glycoprotein; MDR1) (Homo sapiens, UniProt P08183); assay: vanadate-sensitive ATPase stimulation in High-Five insect cell membrane vesicles; also calcein-AM efflux inhibition in MDR19-HEK293 cells (IC50 […]); type: biochemical
ABCB1 (P-glycoprotein; MDR1), sequence (P08183 whole entry): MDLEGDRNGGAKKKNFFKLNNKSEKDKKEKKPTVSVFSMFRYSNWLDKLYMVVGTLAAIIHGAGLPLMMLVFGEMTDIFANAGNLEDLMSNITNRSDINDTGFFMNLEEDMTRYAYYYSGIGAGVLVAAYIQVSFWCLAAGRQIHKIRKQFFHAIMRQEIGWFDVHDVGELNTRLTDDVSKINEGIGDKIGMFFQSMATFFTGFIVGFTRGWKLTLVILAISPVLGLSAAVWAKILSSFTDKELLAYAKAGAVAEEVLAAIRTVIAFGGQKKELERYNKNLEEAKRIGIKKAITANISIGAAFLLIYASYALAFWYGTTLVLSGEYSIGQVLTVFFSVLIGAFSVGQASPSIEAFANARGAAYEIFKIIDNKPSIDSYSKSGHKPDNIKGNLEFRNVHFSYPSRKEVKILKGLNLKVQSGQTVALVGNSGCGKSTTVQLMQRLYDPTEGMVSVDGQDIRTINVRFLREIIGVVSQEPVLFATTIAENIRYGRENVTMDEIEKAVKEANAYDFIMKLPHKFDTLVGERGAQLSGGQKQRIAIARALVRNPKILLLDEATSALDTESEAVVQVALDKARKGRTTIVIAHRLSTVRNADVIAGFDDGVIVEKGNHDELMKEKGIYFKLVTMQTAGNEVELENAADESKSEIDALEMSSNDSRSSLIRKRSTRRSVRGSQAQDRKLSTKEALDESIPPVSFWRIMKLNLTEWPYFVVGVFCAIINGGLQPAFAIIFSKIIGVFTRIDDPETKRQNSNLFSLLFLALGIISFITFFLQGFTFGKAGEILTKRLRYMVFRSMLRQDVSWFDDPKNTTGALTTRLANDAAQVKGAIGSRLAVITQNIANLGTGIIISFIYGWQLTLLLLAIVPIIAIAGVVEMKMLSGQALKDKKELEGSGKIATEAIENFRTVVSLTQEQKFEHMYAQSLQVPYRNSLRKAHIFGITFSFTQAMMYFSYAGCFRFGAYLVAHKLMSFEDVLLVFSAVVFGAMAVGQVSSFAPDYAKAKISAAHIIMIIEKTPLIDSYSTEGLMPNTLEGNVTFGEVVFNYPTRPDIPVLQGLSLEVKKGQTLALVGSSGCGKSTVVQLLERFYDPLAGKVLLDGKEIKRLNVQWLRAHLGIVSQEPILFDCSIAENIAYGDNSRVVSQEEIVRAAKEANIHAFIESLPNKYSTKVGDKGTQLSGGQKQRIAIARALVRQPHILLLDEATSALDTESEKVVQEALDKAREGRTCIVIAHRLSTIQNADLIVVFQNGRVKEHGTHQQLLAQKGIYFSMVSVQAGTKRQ

With `C=CC(=O)Nc1cc(Nc2nccc(-c3cn(C)c4ccccc34)n2)c(OCC(F)(F)F)nc1N(C)CCN(C)C` [furmonertinib] the EC50 (ABCG2 (BCRP; MXR; ABCP)) was about 0.003 µM and the EC50 [1] was about 0.6 µM.
